These results are taken from patent publication US20070261453A1, “Plant Nutrient Based on O,P-Ethylene(Bis)Hydroxyphenyl Glycines” (priority 2004, published 2007).

In this experiment the test system is Soybean (cv.Oshumi) plants. Nature of the experiment: Soybean iron chlorosis experiment in aerated nutrient solution with Fe chelate treatments (plant weight, iron content, SPAD index). In kind it is in vivo. The settings on record: for Iron content in parts of the plants: leaf / Iron content in parts of the plants: per number of leaves / Iron content in parts of the plants: root: dry digestion and atomic absorption, sampled after 14 days; for Iron content in parts of the plants: leaf / Iron content in parts of the plants: per number of leaves / Iron content in parts of the plants: root / Dry leaf weight / Dry root weight / Fresh leaf weight / Fresh plant weight / Fresh root weight: mean of 4 replicates; for Dry leaf weight / Dry root weight / Fresh leaf weight / Fresh plant weight / Fresh root weight: iron-chlorotic soybean plants, sampled 14 days after start of Fe treatment; for Spad index (second leaf): Minolta SPAD 502, means of 4 replicates. On the procedure:
Soybean (cv.Oshumi) plants have been used in the biological experiment. Plants were obtained from soybean seeds that were germinated in standard seed growing procedure in closed sterilized trays. The seeds were placed in the trays on a cellulose paper soaked with 50 milliliters of distilled water and with another paper placed over them. 30 ml distilled water and 20 ml CaSO4 1 mM were added. The trays were placed in a thermostatized stove, without light, at […] for 3 days. After this time the seedlings of similar development were placed on a holed plate floating over containers full of diluted nutrient solution and EDTA for 7 days. Nutrient solutions (without iron) were a mixture of: macronutrients: 1 mM Ca(NO3)2·4H2O, 0.9 mM KNO3, 0.3 mM MgSO4, 0.1 mM KH2PO4; cationic micronutrients: 2.5 μM MnSO4, 1 μM CuSO4, 10 μM ZnSO4, 1 μM NiCl2, 1 μM CoSO4, 115.5 μM EDTANa2 (100 μM in excess to buffer micronutrients activities), 231 μM KOH; anionic micronutrients: 35 μM NaCl, 10 μM H3BO3, 0.05 μM Na2MoO4. The pH was buffered at 7.5 with 0.1 mM HEPES (N-2-Hydroxyethylpiperazine-N′-2-ethanesulfonic acid), 0.05mM KOH and 2 g of CaCO3 per pot. Later, plants were subjected to a stressing procedure that consisted in putting them in five pails that contained 10 | each one of nutrient solution without iron chelate. […] After 6 days, the stems of two plants were wrapped together with foam and placed in 2 | polyethylene vessels (3 holes per lid, 2 plants per pot). The pots were completely covered with black plastic to avoid the incidence of the light. The vessels contained 2 | of continuously aerated nutrient solution containing the Fe treatments. Nutrient solution consisted of macronutrients and anionic micronutrients as before and cationic micronutrients: MnSO4 (1 μM), CuSO4 (0.5 μM), ZnSO4 (0.5 μM), NiCl2 (0.1 μM) and CoSO4 (0.1 μM). Water was added every two days and the solution was renewed every week. Plants were sampled 14 days after. Roots and leaves were separated and washed first with Tween® 80 (polyoxyethylene sorbitan monooleate) in 0.1 M HCl for 30 seconds, and then with abundant distilled water, after that they were weighted and dried. Micronutrientes were determined in leaves and in roots after dry digestion procedure and atomic absorption. During the experiment SPAD readings were frequently taken using the Minolta SPAD 502 chlorophyll meter, for all the leaves.
Seven different treatments were applied: • Comparative Example 1: No iron added. • Comparative Example 2: Fe-o,o-EDDHA 5 μM • Comparative Example 3: Fe-o,o-EDDHA 5 μM+Fe-o,p-EDDHA 1 μM. • Comparative Example 4: Fe-o,o-EDDHA 5 μM+Fe-o,p-EDDHA 2.5 μM. • Comparative Example 5: Fe-o,o-EDDHA 10 μM • Example 1: Fe-o,p-EDDHA 5 μM. • Example 2: Fe-o,o-EDDHA 5 μM+Fe-o,p-EDDHA 5 μM.
Four replications were prepared for each treatment.

Setting [1] is: listed as Comparative Example 2.

On to `O=C([O-])C(NCCNC(C(=O)[O-])c1ccccc1[O-])c1ccccc1[O-].[Fe+3]` (single isomer, unassigned) [Comp. Example 2, Fe-o,o-EDDHA], for which the Dry leaf weight is reported as 0.321 g, the Dry root weight is recorded as 0.282 g, the Fresh leaf weight is listed as 1.257 g and the Fresh plant weight is recorded as 6.781 g. The Fresh root weight worked out at 3.818 g. Further, under setting [1], the “Iron content in parts of the plants: leaf” value (from here on “Iron content in parts … leaf”) is 62.30 μg Fe/g dry leave, the “Iron content in parts of the plants: per number of leaves” value (shortened to “Iron content … per number of leaves”) was 19.82 μg Fe/number of leaves and the “Iron content in parts of the plants: root” value (“Iron content in parts … root” for short) came to 90.32 μg Fe/g dry root. Where the note is “time 0 days, listed as C2”, the “Spad index (second leaf)” value is recorded as 12.7. Also, the “Spad index (second leaf)” value (time 2 days, listed as C2) stood at 10.1. Further, under “time 4 days, listed as C2”, the “Spad index (second leaf)” value came out at 9.1. Moreover, the “Spad index (second leaf)” value (time 7 days, listed as C2) came to 9.5. Further, the “Spad index (second leaf)” value (time 9 days, listed as C2) was determined as 9.2. The “Spad index (second leaf)” value (time 11 days, listed as C2) is 8.2.

For `O=C([O-])C(NCCNC(C(=O)[O-])c1ccccc1[O-])c1ccccc1[O-].[Fe+3]` (single isomer, unassigned) [Comp. Example 5, Fe-o,o-EDDHA], the “Iron content in parts … leaf” value worked out at 74.87 μg Fe/g dry leave, the “Iron content … per number of leaves” value was 55.15 μg Fe/number of leaves, the “Iron content in parts … root” value was 77.22 μg Fe/g dry root and the Dry leaf weight is reported as 0.781 g. The Dry root weight is given as 0.425 g, the Fresh leaf weight is given as 4.736 g, the Fresh plant weight was determined as 15.862 g and the Fresh root weight is 7.316 g. The “Spad index (second leaf)” value (time 0 days) amounted to 16.6. Under “time 2 days”, the “Spad index (second leaf)” value is listed as 15.7. Moreover, the “Spad index (second leaf)” value (time 4 days) turned out to be 15.0. In addition, the “Spad index (second leaf)” value (time 7 days) was determined as 18.2. For the same compound, the “Spad index (second leaf)” value (time 9 days) is recorded as 19.7. Moreover, the “Spad index (second leaf)” value (time 11 days) came to 19.0.

As for `O=C([O-])C(NCCNC(C(=O)[O-])c1ccccc1[O-])c1ccc(O)cc1.[Fe+3]` (stereo not drawn) [Example 1, Fe-o,p-EDDHA], the “Iron content in parts … leaf” value amounted to 80.98 μg Fe/g dry leave, the “Iron content … per number of leaves” value is on record as 91.91 μg Fe/number of leaves, the “Iron content in parts … root” value was determined as 128.48 μg Fe/g dry root and the Dry leaf weight is listed as 1.136 g. This compound also yielded a Dry root weight of 0.595 g, a Fresh leaf weight of 6.282 g, a Fresh plant weight of 21.186 g and a Fresh root weight of 8.933 g. For the same compound, the “Course of SPAD values compared with Comparative Examples (in words)” value (Example 1 vs Comparative Examples 1 to 3, Example 2 vs Comparative Examples 4 and 5) is “raise considerably steeper”. Besides, the “Weight of the plants compared with Comparative Examples (in words)” value (Example 1 vs Comparative Examples 1 to 3, Example 2 vs Comparative Examples 4 and 5, Table 3) is on record as “considerable raise of weight of the plants”. Moreover, the “Iron content in parts of the plants compared with Comparative Examples (in words)” value (Example 1 vs Comparative Examples 1 to 3, Example 2 vs Comparative Examples 4 and 5, Table 4) is “increase in the iron content”. In addition, the “Spad index (second leaf)” value (time 0 days) worked out at 14.7. Besides, where the note is “time 2 days”, the “Spad index (second leaf)” value is 14.0. For the same compound, the “Spad index (second leaf)” value (time 4 days) is 18.0. The “Spad index (second leaf)” value (time 7 days) is 21.4. The “Spad index (second leaf)” value (time 9 days) is given as 13.9. The “Spad index (second leaf)” value (time 11 days) was 24.9.
